Assay results taken from PubChem BioAssay (NCI).
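Protocol summary: plate cells (96-well), add compound at 5 concentrations, incubate 48 h, interpolate endpoints linearly. The concentration for full growth arrest is given as TGI.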

What was measured:
Assay in all cases: inhibition of tumour cell growth, NCI panel, 48 h
T-47D breast = test system: T-47D breast
HCC-2998 colon = test system: HCC-2998 colon
LOX IMVI melanoma = test system: LOX IMVI melanoma
SNB-78 CNS = test system: SNB-78 CNS
SNB-75 CNS = test system: SNB-75 CNS
DLD-1 colon = test system: DLD-1 colon
TK-10 renal = test system: TK-10 renal
NCI-H23 lung = test system: NCI-H23 lung
K-562 leukemia = test system: K-562 leukemia
BT-549 breast = test system: BT-549 breast
KM12 colon = test system: KM12 colon
HOP-92 NSCLC = test system: HOP-92 NSCLC
UO-31 renal = test system: UO-31 renal
HL-60(TB) leukemia = test system: HL-60(TB) leukemia
UACC-257 melanoma = test system: UACC-257 melanoma
SF-268 CNS = test system: SF-268 CNS
RXF 393 renal = test system: RXF 393 renal
SNB-19 CNS = test system: SNB-19 CNS
XF 498 CNS = test system: XF 498 CNS
A498 renal = test system: A498 renal
HCT-15 colon = test system: HCT-15 colon
SF-295 CNS = test system: SF-295 CNS
OVCAR-4 ovarian = test system: OVCAR-4 ovarian
NCI-H522 lung = test system: NCI-H522 lung
786-0 renal = test system: 786-0 renal
A549 NSCLC = test system: A549 NSCLC
RPMI-8226 leukemia = test system: RPMI-8226 leukemia
CAKI-1 renal = test system: CAKI-1 renal
NCI-H460 lung = test system: NCI-H460 lung
DMS 273 small cell lung = test system: DMS 273 small cell lung
NCI-H226 lung = test system: NCI-H226 lung
MDA-N = test system: MDA-N
OVCAR-3 ovarian = test system: OVCAR-3 ovarian
U251 CNS = test system: U251 CNS
MDA-MB-231 breast = test system: MDA-MB-231 breast
MALME-3M melanoma = test system: MALME-3M melanoma
SK-MEL-2 melanoma = test system: SK-MEL-2 melanoma
CCRF-CEM leukemia = test system: CCRF-CEM leukemia
HS 578T breast = test system: HS 578T breast
SW-620 colon = test system: SW-620 colon
UACC-62 melanoma = test system: UACC-62 melanoma
SK-MEL-5 melanoma = test system: SK-MEL-5 melanoma
PC-3 prostate = test system: PC-3 prostate
NCI/ADR-RES ovarian = test system: NCI/ADR-RES ovarian
SR leukemia = test system: SR leukemia
COLO 205 colon = test system: COLO 205 colon
MDA-MB-435 = test system: MDA-MB-435
M14 melanoma = test system: M14 melanoma
EKVX NSCLC = test system: EKVX NSCLC
M19-MEL melanoma = test system: M19-MEL melanoma
HOP-18 NSCLC = test system: HOP-18 NSCLC
SK-OV-3 ovarian = test system: SK-OV-3 ovarian
HCT-116 colon = test system: HCT-116 colon
DU-145 prostate = test system: DU-145 prostate
HT29 colon = test system: HT29 colon
SK-MEL-28 melanoma = test system: SK-MEL-28 melanoma
SN12C renal = test system: SN12C renal
OVCAR-8 ovarian = test system: OVCAR-8 ovarian
LXFL 529 NSCLC = test system: LXFL 529 NSCLC
MCF7 breast = test system: MCF7 breast
OVCAR-5 ovarian = test system: OVCAR-5 ovarian
KM20L2 colon = test system: KM20L2 colon
SF-539 CNS = test system: SF-539 CNS
DMS 114 small cell lung = test system: DMS 114 small cell lung
HOP-62 NSCLC = test system: HOP-62 NSCLC
MOLT-4 leukemia = test system: MOLT-4 leukemia
IGROV1 ovarian = test system: IGROV1 ovarian
ACHN renal = test system: ACHN renal
RXF-631 renal = test system: RXF-631 renal

SMILES: COc1ccc(C(=O)/C=C/c2ccc(OCC(=O)N3CCN(c4ccccc4)CC3)cc2)cc1
- TGI (T-47D breast): > 100 µM
- TGI (HCC-2998 colon): > 100 µM
- TGI (LOX IMVI melanoma): > 100 µM
- TGI (SNB-78 CNS): 54.8 µM
- TGI (SNB-75 CNS): 62.5 µM
- TGI (DLD-1 colon): > 100 µM
- TGI (TK-10 renal): 89.2 µM
- TGI (NCI-H23 lung): > 100 µM
- TGI (K-562 leukemia): > 100 µM
- TGI (BT-549 breast): > 77.3 µM
- TGI (KM12 colon): > 100 µM
- TGI (HOP-92 NSCLC): 51.3 µM
- TGI (UO-31 renal): > 94.7 µM
- TGI (HL-60(TB) leukemia): > 67.3 µM
- TGI (UACC-257 melanoma): > 100 µM
- TGI (SF-268 CNS): > 100 µM
- TGI (RXF 393 renal): 74 µM
- TGI (SNB-19 CNS): 65.1 µM
- TGI (XF 498 CNS): > 93.9 µM
- TGI (A498 renal): > 93.9 µM
- TGI (HCT-15 colon): > 100 µM
- TGI (SF-295 CNS): 84.7 µM
- TGI (OVCAR-4 ovarian): > 100 µM
- TGI (NCI-H522 lung): > 45.8 µM
- TGI (786-0 renal): > 77.3 µM
- TGI (A549 NSCLC): > 100 µM
- TGI (RPMI-8226 leukemia): > 77.8 µM
- TGI (CAKI-1 renal): > 100 µM
- TGI (NCI-H460 lung): > 100 µM
- TGI (DMS 273 small cell lung): > 100 µM
- TGI (NCI-H226 lung): > 100 µM
- TGI (MDA-N): > 100 µM
- TGI (OVCAR-3 ovarian): > 100 µM
- TGI (U251 CNS): > 83.5 µM
- TGI (MDA-MB-231 breast): > 53.2 µM
- TGI (MALME-3M melanoma): > 100 µM
- TGI (SK-MEL-2 melanoma): > 100 µM
- TGI (CCRF-CEM leukemia): > 100 µM
- TGI (HS 578T breast): > 76.5 µM
- TGI (SW-620 colon): > 100 µM
- TGI (UACC-62 melanoma): > 100 µM
- TGI (SK-MEL-5 melanoma): > 85.1 µM
- TGI (PC-3 prostate): > 100 µM
- TGI (NCI/ADR-RES ovarian): > 100 µM
- TGI (SR leukemia): > 60.4 µM
- TGI (COLO 205 colon): > 75.2 µM
- TGI (MDA-MB-435): > 100 µM
- TGI (M14 melanoma): > 100 µM
- TGI (EKVX NSCLC): > 90.4 µM
- TGI (M19-MEL melanoma): > 100 µM
- TGI (HOP-18 NSCLC): > 100 µM
- TGI (SK-OV-3 ovarian): 66 µM
- TGI (HCT-116 colon): > 100 µM
- TGI (DU-145 prostate): > 100 µM
- TGI (HT29 colon): > 100 µM
- TGI (SK-MEL-28 melanoma): > 100 µM
- TGI (SN12C renal): > 100 µM
- TGI (OVCAR-8 ovarian): > 100 µM
- TGI (LXFL 529 NSCLC): > 100 µM
- TGI (MCF7 breast): > 100 µM
- TGI (OVCAR-5 ovarian): > 100 µM
- TGI (KM20L2 colon): > 100 µM
- TGI (SF-539 CNS): 51.7 µM
- TGI (DMS 114 small cell lung): > 100 µM
- TGI (HOP-62 NSCLC): > 79.6 µM
- TGI (MOLT-4 leukemia): > 100 µM
- TGI (IGROV1 ovarian): > 65.8 µM
- TGI (ACHN renal): > 100 µM

SMILES: COCCOCC(=O)N(CCn1ccc(NC(c2ccccc2)(c2ccccc2)c2ccccc2)nc1=O)CCn1cnc2nc(N)[nH]c(=O)c21
- TGI (HCC-2998 colon): > 100 µM
- TGI (LOX IMVI melanoma): > 100 µM
- TGI (SNB-78 CNS): > 100 µM
- TGI (SNB-75 CNS): > 100 µM
- TGI (DLD-1 colon): > 100 µM
- TGI (TK-10 renal): > 100 µM
- TGI (RXF-631 renal): > 100 µM
- TGI (NCI-H23 lung): > 100 µM
- TGI (K-562 leukemia): > 100 µM
- TGI (KM12 colon): > 100 µM
- TGI (HOP-92 NSCLC): > 100 µM
- TGI (UO-31 renal): > 100 µM
- TGI (HL-60(TB) leukemia): > 100 µM
- TGI (UACC-257 melanoma): > 100 µM
- TGI (SF-268 CNS): > 100 µM
- TGI (RXF 393 renal): > 100 µM
- TGI (A498 renal): > 100 µM
- TGI (HCT-15 colon): > 100 µM
- TGI (SF-295 CNS): > 100 µM
- TGI (OVCAR-4 ovarian): > 100 µM
- TGI (786-0 renal): > 100 µM
- TGI (A549 NSCLC): > 100 µM
- TGI (RPMI-8226 leukemia): > 100 µM
- TGI (CAKI-1 renal): > 100 µM
- TGI (NCI-H460 lung): > 100 µM
- TGI (DMS 273 small cell lung): > 100 µM
- TGI (NCI-H226 lung): > 100 µM
- TGI (OVCAR-3 ovarian): > 100 µM
- TGI (U251 CNS): > 100 µM
- TGI (MALME-3M melanoma): > 100 µM
- TGI (SK-MEL-2 melanoma): > 100 µM
- TGI (CCRF-CEM leukemia): > 100 µM
- TGI (SW-620 colon): > 100 µM
- TGI (UACC-62 melanoma): > 100 µM
- TGI (SK-MEL-5 melanoma): > 100 µM
- TGI (SR leukemia): > 100 µM
- TGI (COLO 205 colon): > 100 µM
- TGI (M14 melanoma): > 100 µM
- TGI (EKVX NSCLC): > 100 µM
- TGI (HOP-18 NSCLC): > 100 µM
- TGI (HCT-116 colon): > 100 µM
- TGI (HT29 colon): > 100 µM
- TGI (SK-MEL-28 melanoma): > 100 µM
- TGI (SN12C renal): > 100 µM
- TGI (OVCAR-8 ovarian): > 100 µM
- TGI (LXFL 529 NSCLC): > 100 µM
- TGI (OVCAR-5 ovarian): > 100 µM
- TGI (KM20L2 colon): > 100 µM
- TGI (SF-539 CNS): > 100 µM
- TGI (DMS 114 small cell lung): > 100 µM
- TGI (HOP-62 NSCLC): > 100 µM
- TGI (MOLT-4 leukemia): > 100 µM
- TGI (IGROV1 ovarian): > 100 µM
- TGI (ACHN renal): > 100 µM

SMILES: CC(C)(C)C(=O)O[C@@H]1COC2C(O)COC21 (stereo partly drawn)
- TGI (HCC-2998 colon): > 100 µM
- TGI (LOX IMVI melanoma): > 100 µM
- TGI (SNB-78 CNS): > 100 µM
- TGI (SNB-75 CNS): > 100 µM
- TGI (DLD-1 colon): > 100 µM
- TGI (TK-10 renal): > 100 µM
- TGI (RXF-631 renal): > 100 µM
- TGI (NCI-H23 lung): > 100 µM
- TGI (K-562 leukemia): > 100 µM
- TGI (KM12 colon): > 100 µM
- TGI (HOP-92 NSCLC): > 100 µM
- TGI (UO-31 renal): > 100 µM
- TGI (HL-60(TB) leukemia): > 100 µM
- TGI (UACC-257 melanoma): > 100 µM
- TGI (SF-268 CNS): > 100 µM
- TGI (RXF 393 renal): > 100 µM
- TGI (SNB-19 CNS): > 100 µM
- TGI (XF 498 CNS): > 100 µM
- TGI (SF-295 CNS): > 100 µM
- TGI (OVCAR-4 ovarian): > 100 µM
- TGI (NCI-H522 lung): > 100 µM
- TGI (786-0 renal): > 100 µM
- TGI (A549 NSCLC): > 100 µM
- TGI (CAKI-1 renal): > 100 µM
- TGI (NCI-H460 lung): > 100 µM
- TGI (DMS 273 small cell lung): > 100 µM
- TGI (OVCAR-3 ovarian): > 100 µM
- TGI (U251 CNS): > 100 µM
- TGI (MALME-3M melanoma): > 100 µM
- TGI (CCRF-CEM leukemia): > 100 µM
- TGI (SW-620 colon): > 100 µM
- TGI (UACC-62 melanoma): > 100 µM
- TGI (SK-MEL-5 melanoma): > 100 µM
- TGI (SR leukemia): > 100 µM
- TGI (COLO 205 colon): > 100 µM
- TGI (M14 melanoma): > 100 µM
- TGI (M19-MEL melanoma): > 100 µM
- TGI (HOP-18 NSCLC): > 100 µM
- TGI (HCT-116 colon): > 100 µM
- TGI (HT29 colon): > 100 µM
- TGI (SK-MEL-28 melanoma): > 100 µM
- TGI (SN12C renal): > 100 µM
- TGI (OVCAR-8 ovarian): > 100 µM
- TGI (LXFL 529 NSCLC): > 100 µM
- TGI (OVCAR-5 ovarian): > 100 µM
- TGI (SF-539 CNS): > 100 µM
- TGI (DMS 114 small cell lung): > 100 µM
- TGI (HOP-62 NSCLC): > 100 µM
- TGI (MOLT-4 leukemia): 49 µM
- TGI (IGROV1 ovarian): > 100 µM
- TGI (ACHN renal): > 100 µM
